# Data from a melting point compilation (Tetko et al.; mined from patent text by program, amines drawn as free bases though some values may be those of a salt).
row,melting point [°C],SMILES
1,158 to 160,Cc1ccccc1Oc1cccc(CC(=O)O)c1[N+](=O)[O-]
2,108 to 109,Cc1ccc(OCc2c(F)cccc2Cl)c(N)n1
3,112 to 114,Cc1ccc(S(=O)(=O)N2CCc3ccccc3C(Oc3cccc(C(F)(F)F)c3)C2)cc1 (stereo unspecified)
4,202 to 209,Clc1cc(CCc2ccccn2)c2oc(-c3cnc[nH]3)nc2c1
5,127 to 128,CCOc1nn(Cc2ccccc2OCc2nc(-c3ccccc3)oc2C)cc1CCC(=O)O
6,195,O=C1N(Cc2ccco2)Cc2cnc(Nc3ccccc3)nc2N1c1cccc(CCO)c1
7,162,CCCCc1nn2c(c1Cc1ccc(-c3ccccc3C(=O)O)cc1)CCCC2
8,238 to 240,O=C1Nc2ccccc2Cc2nccn21
9,90,CCOCc1nc2c(N)nc3ccc(OCc4ccccc4)cc3c2n1CC(C)(C)NC(=O)C1CCCCC1
10,85 to 95,CN(C)CCCOc1ccc(C(=O)c2c(-c3ccccc3)oc3ccccc23)cc1
11,186,CNC(=O)c1ccc2c(c1)c(-c1cc3cccnc3[nH]1)cn2C
12,223 to 226,CC(=O)Oc1ccc(-n2c3c(c(C(C)=O)c2-c2ccccc2)-c2ccccc2CC3)cc1C(=O)O
13,268 to 270,O=C(O)c1ccc(-c2cnc(-c3ccc(Cl)cc3)o2)cc1
14,168 to 169,Cc1ccc(C(=O)NC(NC(=S)Nc2cccnc2)C(C)(C)C)cc1 (stereo unspecified)
15,138 to 140,O=C1CCC(O)(c2ccccc2Cc2ccccc2)CC1
16,180 to 182,COc1ccc(-c2ccc(C(=O)Nc3ccc4cc(CN5CCCC5)cnc4c3C)cn2)cc1
17,136 to 139,Cc1noc(=O)c2ccc(NC(=O)C(=O)CC3(c4cccc(C(F)(F)F)c4)CC3)cc12
18,160 to 161,COc1ccc(C(=O)NCCCCCCCNC(=O)c2ccc(OC)c(OC)c2)cc1OC
19,180 to 182,COc1ccc2c(Cc3ncc(Cl)cc3Cl)nncc2c1C=Cc1ccccc1
20,191 to 192,C[C@@H](N(CC(=O)O)C(=O)c1ccc(C(F)(F)F)cc1F)[C@](O)(Cn1cncn1)c1ccc(F)cc1F (relative stereo)
21,159,Nc1cc(C=C2c3ccccc3CCc3ccccc32)ccc1O
22,> 110,CCCCc1nc(CO)c(C(=O)NCC(=O)O)n1Cc1ccc(-c2ccccc2C(=O)O)cc1
23,221 to 223,CC(C)C1(C)N=C(c2nc3sccc3cc2C(=O)O)NC1=O (stereo unspecified)
24,97 to 98,CSc1nc(Oc2ccccc2)c(C(=O)O)c(Oc2ccccc2)n1

row,melting point [°C],SMILES
1,134 to 136,O=C1N(CCCCN2CCN(c3cn(-c4ccc(F)cc4)c4ccccc34)CC2)CSC12CCCCC2
2,188,Cc1nc2ccccn2c1-c1csc(Nc2ccc(C(=O)NO)cc2)n1
3,280,Cc1cc(-c2cc(C(F)(F)F)nc(-c3ccnc(-c4ccc(S(N)(=O)=O)s4)c3)n2)ccc1Cl
4,101 to 103,Cc1nc2c(F)cccc2c(Cl)c1CCCl
5,131 to 133,CCCCS(=O)(=O)N(C(=O)OC(C)(C)C)c1cc(O)ccc1OCc1ccccc1
6,258 to 263,O=C(Nc1cccc(Cl)c1)Nc1ccc(Br)cc1-c1nnn[nH]1
7,184 to 185,CCCn1nc2c(N)nc3ccccc3c2c1CCNC(=O)CC
8,178 to 179,N#CCCc1ccnc(-c2nc(=O)c3ccccc3s2)c1
9,214 to 216,Cc1cccc(NC(=O)NC2N=C(CO)c3cccc(C)c3N(CC(=O)N3CCCCCCC3)C2=O)c1 (stereo unspecified)
10,85 to 87,CCCCOC(=O)c1ccccc1-c1ccc(Cn2c(CCC)nc(C(C)(C)O)c2C(=O)OCOC(=O)OC(C)C)cc1
11,100 to 101,CC(=O)NC[C@@H]1C[C@H]1c1cccn2nc(C)cc12 (relative stereo)
12,203 to 205,COc1ccc(N2C(=O)C(=O)c3cc(OC)ccc32)cc1
13,169 to 170,O=C(NC(=O)c1ccccc1Cl)Nc1ccc(-n2cccc2)c(Cl)c1
14,254 to 257,O=C1NC(=O)c2c1c(-c1c(Cl)cccc1Cl)cc1c2c2cc(O)ccc2n1CCO
15,193 to 195,CC(=O)N(C)c1ccc2c(c1)cc(C(=O)c1ccc(C)cc1)n2C
16,247 to 248,CC(C)OC1=CC=CN2C1=NC(=O)C2(Cc1ccccc1)Cc1ccccc1
17,200 to 201,CC(=O)Nc1ccc(S(=O)(=O)NC(C)(C)C)cc1
18,288 to 290,O=C1CSc2nc(Nc3ccc(N4CCOCC4)cc3)ncc2N1
19,148 to 150,CC(C)Oc1ccc(-c2nc3n(c2-c2ccncc2)CCC3)cc1
20,91 to 94,NC(=O)c1ccc(CCCOCCCCCCNCC(O)c2cc(Cl)c(N)c(Cl)c2)cc1 (stereo unspecified)
21,170,O=C(NCCc1ccc(Cl)cc1Cl)Nc1cccc2[nH]ccc12
22,> 220,NC(=O)Nc1ccc(-c2nnc(CSCCOc3ccccc3)o2)cc1
23,194 to 195,Oc1c(-c2ccccc2)nn(Cc2ccccc2)c1-c1ccccc1

# Further lines, the compound ahead of its results:
row,SMILES,melting point [°C]
1,CC1(C)CC(=O)C2=C(C1)NC1=C(C(=O)CC(C)(C)C1)C2c1cccc(-n2ccnc2)c1,286 to 288
2,CCCCNC(=O)Oc1cccc(NC(=O)C=C(CCC)OC)c1,150
3,CC(C)(CCC(=O)O)N(Cl)Cl,35 to 38
4,O=C1CSC(=S)N1N=c1sc2ccc(C(F)(F)F)cc2s1,285 to 288
5,CCCCCCCCC(=N)NC(=S)Nc1ccc(Cl)cc1,102 to 103
6,CCOc1ccc2c(=O)c(C(=O)O)cn(CCO)c2n1,220
7,Cn1c(=O)[nH]c2cc(CC(=O)O)ccc21,220
8,CCOC(=O)c1cc2cc(NC(C)=O)ccc2n1C(=O)OC(C)(C)C,122 to 123
9,COc1cc(CC(=O)O)cc2c1NC(C(F)(F)F)CC2 (stereo unspecified),108 to 109
10,CCCCCCCc1ccc(-c2ccc(OC)cc2)nc1,54.4 to 56.5
11,CCCCCCCCCCCCCCCCN(CCO)CCCCCCN(CCO)CCCCCCCCCCCCCCCC,29 to 30
12,CCn1ncc2nc(C#N)c(OCCC(C)C)nc21,78 to 80
13,Cc1oc(-c2ccccc2)nc1CCCCCO,40 to 42
14,CC(C)Nc1nc2cc(F)c(Cl)cc2n1[C@@H]1O[C@H](C)[C@@H](O)[C@H]1O,97 to 99
15,N#CCc1ccc(CNC(=O)C2Cc3ccccc3N2S(=O)(=O)c2ccc(-c3cccc(C(F)(F)F)c3)cc2)cc1 (stereo unspecified),75 to 80
16,Cc1ccc2c(O)cnnc2c1,114 to 115
17,Cc1nc(NCCCOc2cccc(CN3CCCCC3)c2)sc1C,123 to 125
18,COc1cccc2c1CC1OC1C2 (stereo unspecified),49.5 to 50.5
19,Cn1c(OCc2ccccc2)noc1=O,80 to 83
20,COC(c1c(Cl)sc(Cl)c1Cl)C(C)N(OC)C(=O)c1cn(C)nc1C(F)F (stereo unspecified),113 to 116
21,CC1(C)N=C(c2ccccc2F)c2cc([N+](=O)[O-])cc(Cl)c2NC1=O,142 to 143
22,OC1CSC(Oc2cncc(Cl)c2)C(O)C1O (stereo unspecified),184
23,CSc1ccc(CC(=O)O)cc1Cl,106 to 108
24,CC(C)NC1=NS(=O)(=O)c2cc(F)c(NC(C)C)cc2N1,234 to 237
25,CNC(=O)c1ncn2c(=O)n(CCCl)nnc12,120 to 122
26,COC(=O)c1cc(C#CC(C)(C)O)cnc1C1=NC(C)(C(C)C)C(=O)N1 (stereo unspecified),142 to 145
27,COc1ccc(Cn2c(=S)[nH]c(=S)c3[nH]cnc32)cc1OC1CCCC1,215 to 218

row,SMILES,melting point [°C]
1,CC(=O)N1CCC(C(=O)c2ccc(N3CCCCC3)cc2)CC1,122 to 125
2,CN(C=O)CNC(=O)c1snc(Cl)c1Cl,87 to 88
3,NCc1ccccc1CN,> 250
4,COc1ccc(Cn2c(=O)n(C3CCCCC3)c3cc(Cl)ccc32)c(OC)c1,112
5,O=C(O)CN(CF)C(=O)c1ccccc1,233 to 235
6,CN(C)C(=O)CCCCC(=O)O,80
7,Cc1ccc(S(=O)(=O)N(CCO)CCN(CCN(CCO)S(=O)(=O)c2ccc(C)cc2)S(=O)(=O)c2ccc(C)cc2)cc1,110 to 112
8,CCCn1c(=O)c2[nH]c(-c3ccoc3)nc2n(CCC)c1=O,244 to 245
9,CC(=O)OC(C(C)C(C)C)C(OC(C)=O)C(C)C1CCC2C3CC(=O)C4CC=CCC4(C)C3CCC12C (stereo unspecified),210 to 213
10,CON(CCCc1ccc(Cl)c(Cl)c1)C(=O)C1=C(O)C(=O)N(C)C1,106 to 108
11,C=CCOc1ccc(C(O)CN2CCN(C(c3ccccc3)c3ccccc3)CC2)cc1 (stereo unspecified),100
12,CCCc1c(OCCCOc2ccc3c(c2)CCC(CC(=O)OC)C3=O)ccc(C(C)=O)c1O (stereo unspecified),96 to 98
13,CCN1CCCC1CNC(=O)c1c(Br)c(Br)c([N+](=O)[O-])c2c1OCCO2 (stereo unspecified),213
14,N#Cc1ncc(OC2SCC(O)C(O)C2O)cc1F (stereo unspecified),155 to 156
15,CN1CCOc2cc(N)ccc2C1=O,169 to 170
16,Nc1cc(Cl)c(Cl)c(Cl)c1N,109 to 111
17,IC12C3C4C5C3C1C5C42 (stereo unspecified),32 to 33
18,C=CCN1CCN(C2=NC3(C=CC(=O)C=C3)C(Sc3ccccc3)=C2)CC1,175
19,CCN(CC)CCOc1cccc2c1c1cc(F)ccc1n2Cc1ccc(F)cc1,75 to 76
20,CCOCc1nc2c(N)nc3cc(-c4cccnc4)ccc3c2n1CC(C)(C)OCCS(C)(=O)=O,202 to 204
21,CCN(CC)c1ccc2nc(C)c(C#N)c(O)c2c1,> 250
22,CN(C)C(=C[N+](=O)[O-])NCc1cnc(Cl)s1,101 to 102
23,C=CCOC(=O)c1ccc(OC(=O)c2ccc(OC)c(C34CC5CC(CC(C5)C3)C4)c2)c(C(C)(C)C)c1,113 to 115
24,CC(C)(C)OC(=O)N1C[C@H](NS(=O)(=O)c2ccc(Cl)cc2)C[C@H]1C=O,120 to 122
25,CN1CCN(Cc2nnc3n2CC(=O)N(C)c2ccc(Cl)cc2-3)CC1,228 to 230
26,COC(=O)C(Br)c1nsc2ccc(-n3c(=O)cc(C(F)(F)F)n(C)c3=O)cc12 (stereo unspecified),84 to 87
27,Cc1cc(C)c(/C=C2\C(=O)N(CN3CCCC3)c3ccccc32)[nH]1,129 to 132
